Measurements: PubChem BioAssay AID1959 (Broad Institute, 2009)
The source made the active and inactive calls.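 The calls were made as follows: active = growth-inhibition EC50 no more than tenfold above the top tested dose; inconclusive = flat fit between 30% and 70% inhibition, or unreliable fit; inactive = EC50 more than tenfold above the top tested dose.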

System: E. coli NEB5alpha growth, BacTiter-Glo luminescence, 4 h
Test: Escherichia coli growth inhibition, dose response, counter-screen for MEX-5/POS-1 RNA-binding inhibitor project, luminescence, NEB5alpha (AID 1959);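 also: pUC19-transformed ampicillin-resistant cells grown in LB with ampicillin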

| SMILES | EC50 |
| --- | --- |
| Cc1cc(/C=C2\C(=O)NC(=O)N(c3ccc(F)cc3)C2=O)c(C)n1-c1cccc(C(=O)O)c1 | > 11 µM (inactive) |
| CC1(C)CC(=O)C2=C(C1)OC(N)=C(C#N)C2c1cccc(OC(=O)c2ccco2)c1 (configuration not stated) | > 11 µM (inactive) |
| Cc1ccc(N=Nc2c(O)[nH]c3ccc(F)cc23)cc1 | > 11 µM (inactive) |
| O=C(NNC(=O)c1ccccc1O)c1ccco1 | > 11 µM (inactive) |
| CCN(CC)c1ccc(/C=C(/C#N)c2nc3ccccc3[nH]2)c(OC(C)C)c1 | > 11 µM (inactive) |
| Cc1n[nH]c(C)c1Sc1ccccc1N=Cc1cc(Cl)cc([N+](=O)[O-])c1O | > 11 µM (inactive) |
| COC(=O)c1cc(C(=O)OC)cc(-n2c(C)cc(C(=O)COC(=O)CNS(=O)(=O)c3ccc(C)cc3)c2C)c1 | > 11 µM (inactive) |
| CC(=O)N=c1c(C#N)cc2c(=O)n3cccc(C)c3nc2n1CCCOC(C)C | > 11 µM (inactive) |
| O=C1N=C(N2CCCCC2)S/C1=C/C1=Cc2ccccc2OC1 | > 11 µM (inactive) |
| O=C(/C=C(\O)c1ccccc1)C(=O)NNC(=O)c1ccccc1[N+](=O)[O-] | > 11 µM (inactive) |
| COc1cc(OC)c(C2C(C#N)=C(N)OC3=C2C(=O)CC(C)(C)C3)cc1OC (configuration not stated) | > 11 µM (inactive) |
| COc1ccc(C2C(C#N)=C(N)OC3=C2C(=O)CC(C)(C)C3)cc1 (configuration not stated) | > 11 µM (inactive) |
| CCN(CC)C(=O)CSc1nnc2nnc3cc(Cl)ccc3n12 | > 11 µM (inactive) |
| O=C(O)c1cccc(-n2cccc2/C=C\[N+](=O)[O-])c1 | > 11 µM (inactive) |
| COc1ccc(C2C(C#N)=C(N)OC3=C2C(=O)CCC3)cc1Cn1nc(C)c([N+](=O)[O-])c1C (configuration not stated) | > 11 µM (inactive) |
| CC1(C)Cc2c(cnn2-c2cccc(F)c2)C(NC(=O)CSc2ccccn2)C1 (configuration not stated) | > 11 µM (inactive) |
| CN(C)Cc1cc(O)c(CN(C)C)cc1O | > 11 µM (inactive) |
| O=C1C2=C(SCCS2)C(=O)N1c1ccccc1 | > 11 µM (inactive) |
| COc1cccc(C2(O)CCN(CC(=O)Nc3nc(C)cs3)CC2)c1 | > 11 µM (inactive) |
| CCO/C(C)=N/n1c2nc3ccccc3nc2c2c(=O)n(C3CCCC3)c(C)nc21 | > 11 µM (inactive) |
| O=C(Nc1nccs1)c1ccc(-c2ccc([N+](=O)[O-])cc2)o1 | > 11 µM (inactive) |
| COc1ccc(C2C(C(=O)c3ccco3)=C(O)C(=O)N2c2nnc(C)s2)cc1 (configuration not stated) | > 11 µM (inactive) |
| CN1CCc2cc(O)cc3c2[C@H]1Cc1ccc(O)c(O)c1-3 | > 11 µM (inactive) |
| Cc1ccc(N/N=C/c2c(C)c(C#N)c(=O)n(C)c2O)cc1C | > 11 µM (inactive) |

| SMILES | EC50 |
| --- | --- |
| CSCC(C)N1CCC(Oc2cccc(C(=O)NCc3ccccn3)c2)CC1 (configuration not stated) | > 11 µM (inactive) |
| COc1ccc(N=Cc2c(O)c3ccccc3n2C(C)=O)cc1 | > 11 µM (inactive) |
| COc1ccc(C2=CC3=C(Br)C(=O)C(C)(OC(=O)c4ccc(Cl)nc4)C(=O)C3=CO2)cc1 (configuration not stated) | > 11 µM (inactive) |
| O=C(O)CC(C(=O)O)N1C(=O)/C(=C/C=C/c2ccco2)SC1=S (configuration not stated) | > 11 µM (inactive) |
| COc1ccc(/C=C2\SC(=S)N(CCCC(=O)NC3CCCC3)C2=O)cc1OC | > 11 µM (inactive) |
| CC1C(=O)NN=C1C(=O)N/N=C/c1ccco1 (configuration not stated) | > 11 µM (inactive) |
| CC1(CCl)N([O-])C2=C(CCCC2)[N+]1=O (configuration not stated) | > 11 µM (inactive) |
| CC(=O)Oc1cc2cccc(OC(C)=O)c(=O)c2c(OC(C)=O)c1OC(C)=O | > 11 µM (inactive) |
| ON=C1/C(=N\O)CC2(C/C1=N/O)OCCO2 | > 11 µM (inactive) |
| CC(=O)N=Cc1c(C)c(C#N)c(=O)n(C)c1O | > 11 µM (inactive) |
| COc1ccc(C(=O)NNC(=O)c2cnccn2)cc1[N+](=O)[O-] | > 11 µM (inactive) |
| C=CCn1c(=S)[nH]c2nc3c(cc2c1=O)COC(C)(C)C3 | > 11 µM (inactive) |
| N=c1c(S(=O)(=O)c2ccccc2)cc2c(=O)n3ccccc3nc2n1Cc1cccnc1 | > 11 µM (inactive) |
| Cc1ccc(/C=C2\C(=O)NC(=S)N(c3ccc(F)cc3)C2=O)o1 | > 11 µM (inactive) |
| COc1ccc(/C=c2\sc3nc(-c4ccccc4OC)nn3c2=O)c(OC)c1 | > 11 µM (inactive) |
| COc1cc(OC)c(C2C(C#N)=C(N)OC3=C2C(=O)CC(C)C3)cc1OC (configuration not stated) | > 11 µM (inactive) |
| O=C1c2cccc3c(N4CCCCC4)ccc(c23)C(=O)N1c1ccccn1 | > 11 µM (inactive) |
| Cc1cc(C)c[n+](-c2[nH]c(=O)sc2/C=N/NC([S-])=Nc2ccccc2)c1 | > 11 µM (inactive) |
| CC(=O)N1CCN(c2ccc(N=Cc3c(O)n(Cc4ccccc4)c(=O)[nH]c3=O)cc2)CC1 | > 11 µM (inactive) |
| O=c1[nH]c(=S)[nH]c2c1C(c1ccc(Br)cc1)c1c([nH]c(=S)[nH]c1=O)O2 | > 11 µM (inactive) |
| Cc1ccc2cc(/C=C(\C#N)C(N)=O)c(N3CCCCC3)nc2c1 | > 11 µM (inactive) |
| Cc1c(O)ccc(-c2n[nH]c(C(=O)O)c2-c2nc3ccccc3s2)c1O | > 11 µM (inactive) |
| O=C(O)c1ccc(-n2cccc2/C=C2/NC(=O)N(c3ccccc3)C2=O)cc1 | > 11 µM (inactive) |
